According to ChEMBL document CHEMBL1147051, “Coupling substrate and ion binding to extracellular gate of a sodium-dependent aspartate transporter” (Nature, 2007):
Activity calls are given as the source filed them. The calls are words filed in the database; no cut-off is given here.

Tests used:
[1] = Binding affinity to Pyrococcus horikoshii sodium-coupled aspartate transporter
[2] = biological target: Glutamate transporter homolog (Pyrococcus horikoshii (strain ATCC 700860 / DSM 12428 / JCM 9974 /NBRC 100139 / OT-3), UniProt O59010, D405N); experiment: Binding affinity to Pyrococcus horikoshii sodium-coupled aspartate transporter D405N mutant in presence of NaCl
Pyrococcus horikoshii = experiment: Inhibition of [3H]L-aspartate uptake at Pyrococcus horikoshii sodium-coupled aspartate transporter in presence of thallium
[3] = Binding affinity to Pyrococcus horikoshii sodium-coupled aspartate transporter by isothermal titration calorimetry in presence of NaCl

Chain of Glutamate transporter homolog (O59010 whole entry D405N): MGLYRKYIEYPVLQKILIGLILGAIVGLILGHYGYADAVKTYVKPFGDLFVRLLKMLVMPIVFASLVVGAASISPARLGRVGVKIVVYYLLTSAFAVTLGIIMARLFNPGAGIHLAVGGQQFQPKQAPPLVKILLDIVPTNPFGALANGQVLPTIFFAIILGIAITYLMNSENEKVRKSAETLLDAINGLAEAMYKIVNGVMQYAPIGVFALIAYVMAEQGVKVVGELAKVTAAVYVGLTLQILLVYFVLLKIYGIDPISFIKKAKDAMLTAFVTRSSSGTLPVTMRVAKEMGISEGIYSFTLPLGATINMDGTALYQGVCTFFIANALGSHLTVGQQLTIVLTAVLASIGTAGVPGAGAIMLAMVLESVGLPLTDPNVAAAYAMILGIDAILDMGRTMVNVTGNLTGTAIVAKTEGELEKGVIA

| Kd [1] [µM] | SMILES | other results |
| --- | --- | --- |
| 162 | N[C@H](CCC(=O)O)C(=O)O [D-GLUTAMATE] |  |
| 122 | N[C@@H](CCC(=O)O)C(=O)O [GLUTAMIC ACID] |  |
| 160 | N[C@@H](CO)C(=O)O [SERINE] |  |

Further lines, the compound ahead of its results:

| SMILES | Kd [1] [µM] | other results |
| --- | --- | --- |
| N[C@@H](CS(=O)O)C(=O)O | 0.02 |  |
| NC(C(=O)O)C(OCc1ccccc1)C(=O)O (racemic) |  | Kd [2]: 0.1 µM |
| N[C@@H](CC(=O)O)C(=O)O [ASPARTIC ACID] |  | Activity (Pyrococcus horikoshii): inactive; Kd [3]: 0.094 µM |
| N[C@H](CC(=O)O)C(=O)O [D-ASPARTATE] | 0.009 |  |
| O=C(O)CCC(=O)O [SUCCINIC ACID] | 1450 |  |
